From US4229204A, “Trifluoromethylphenyl isoxazolyl benzoates” (Monsanto Company, priority 1978, dated 1980)

Legend:
Type in all cases: in vivo
Lambsquarters [1] = experiment: Pre-emergent herbicidal test
Description: (§1) The pre-emergent test was conducted as follows:
(§2) A good grade of top soil was placed in aluminum pans and compacted to a depth of three-eighths to one-half inch from the top of the pan. On the top of the soil was placed a predetermined number of seeds or vegetative propagules of various plant species which were pressed into the soil surface. The soil required to level fill the pans after seeding or adding vegetative propagules was weighed into a pan. A known amount of the active ingredient applied in a solvent or as a wettable powder and the soil were thoroughly mixed, and used as a cover layer for prepared pans.
(§3) The herbicidal rating was obtained by means of a fixed scale based on the percent injury of each plant species. The ratings are defined as follows: […]
(§4) The compounds were also tested by utilizing the above procedure on the following plant species: […]

Cocklebur [2] = experiment: Pre-emergent herbicidal test
Description: as §1, §2, §3, §4

Yellow Nutsedge [3] = experiment: Pre-emergent herbicidal test; details: 4 WAT, 11.2 kg/h
Description: as §1, §2, §3, §4

Quackgrass [4] = experiment: Pre-emergent herbicidal test; details: 4 WAT, 11.2 kg/h
Description: as §1, §2, §3, §4

Canada Thistle [5] = experiment: Pre-emergent herbicidal test; details: 4 WAT, 11.2 kg/h
Description: as §1, §2, §3, §4

Smartweed [6] = experiment: Pre-emergent herbicidal test
Description: as §1, §2, §3, §4

Downy Brome [7] = experiment: Pre-emergent herbicidal test
Description: as §1, §2, §3, §4

Barnyardgrass [8] = experiment: Pre-emergent herbicidal test
Description: as §1, §2, §3, §4

Velvetleaf [9] = experiment: Pre-emergent herbicidal test
Description: as §1, §2, §3, §4

Morningglory [10] = experiment: Pre-emergent herbicidal test
Description: as §1, §2, §3, §4

Johnsongrass [11] = experiment: Pre-emergent herbicidal test; details: 4 WAT, 11.2 kg/h
Description: as §1, §2, §3, §4

Lambsquarters [12] = experiment: Post-emergent herbicidal test; details: 4 WAT, 11.2 kg/h
Description: (§5) The post-emergent tests were conducted as follows:
(§6) The active ingredients are applied in spray form to two or three week old specimens of various plant species. The spray, a solution or wettable powder suspension containing the appropriate rate of active ingredient to give the desired test rate and a surfactant, is applied to the plants.
as §4

Cocklebur [13] = experiment: Post-emergent herbicidal test; details: 4 WAT, 11.2 kg/h
Description: as §5, §6, §4

Yellow Nutsedge [14] = experiment: Post-emergent herbicidal test; details: 4 WAT, 11.2 kg/h
Description: as §5, §6, §4

Quackgrass [15] = experiment: Post-emergent herbicidal test; details: 4 WAT, 11.2 kg/h
Description: as §5, §6, §4

Canada Thistle [16] = experiment: Post-emergent herbicidal test; details: 4 WAT, 11.2 kg/h
Description: as §5, §6, §4

Smartweed [17] = experiment: Post-emergent herbicidal test; details: 4 WAT, 11.2 kg/h
Description: as §5, §6, §4

Downy Brome [18] = experiment: Post-emergent herbicidal test; details: 4 WAT, 11.2 kg/h
Description: as §5, §6, §4

Barnyardgrass [19] = experiment: Post-emergent herbicidal test; details: 4 WAT, 11.2 kg/h
Description: as §5, §6, §4

Velvetleaf [20] = experiment: Post-emergent herbicidal test; details: 4 WAT, 11.2 kg/h
Description: as §5, §6, §4

Morningglory [21] = experiment: Post-emergent herbicidal test; details: 4 WAT, 11.2 kg/h
Description: as §5, §6, §4

Johnsongrass [22] = experiment: Post-emergent herbicidal test; details: 4 WAT, 11.2 kg/h
Description: as §5, §6, §4

Wheat = experiment: Pre-emergent herbicidal test; details: 2 WAT
Description: as §1, §2, §3

Sorghum = experiment: Pre-emergent herbicidal test; details: 2 WAT
Description: as §1, §2, §3

Crabgrass = experiment: Pre-emergent herbicidal test; details: 2 WAT
Description: as §1, §2, §3

Hemp Sesbania = experiment: Pre-emergent herbicidal test; details: 2 WAT
Description: as §1, §2, §3

Rice = experiment: Pre-emergent herbicidal test; details: 2 WAT
Description: as §1, §2, §3

Panicum Spp. = experiment: Pre-emergent herbicidal test; details: 2 WAT
Description: as §1, §2, §3

Soybean = experiment: Pre-emergent herbicidal test; details: 2 WAT
Description: as §1, §2, §3

Sugarbeet = experiment: Pre-emergent herbicidal test; details: 2 WAT
Description: as §1, §2, §3

Wild Buckwheat = experiment: Pre-emergent herbicidal test; details: 2 WAT
Description: as §1, §2, §3
Also: ranges in brackets are in %.

In the case of `CCCCOC(=O)c1ccccc1-c1cc(-c2cccc(C(F)(F)F)c2)no1` [Example 6, n-Butyl 2-[3-[3-(Trifluoromethyl)Phenyl]-5-Isoxazolyl]Benzoate], the herbicidal rating (Lambsquarters [1]; 2 WAT, 0.28 kg/h) is reported as 3 (75-100), the herbicidal rating (Lambsquarters [1]; 2 WAT, 1.12 kg/h) is reported as 3 (75-100) and the herbicidal rating (Lambsquarters [1]; 2 WAT, 5.60 kg/h) is reported as 3 (75-100). The herbicidal rating (Lambsquarters [1]; 4 WAT, 11.2 kg/h) was 2 (50-74), the herbicidal rating (Cocklebur [2]; 2 WAT, 0.28 kg/h) was 0 (0-24) and the herbicidal rating (Cocklebur [2]; 2 WAT, 1.12 kg/h) was 0 (0-24). For the same compound, the herbicidal rating (Cocklebur [2]; 2 WAT, 5.60 kg/h) was 1 (25-49), the herbicidal rating (Cocklebur [2]; 4 WAT, 11.2 kg/h) was 1 (25-49) and the herbicidal rating (Yellow Nutsedge [3]) was 1 (25-49). The herbicidal rating (Quackgrass [4]) was 2 (50-74), the herbicidal rating (Canada Thistle [5]) was 3 (75-100) and the herbicidal rating (Smartweed [6]; 2 WAT, 0.28 kg/h) was 3 (75-100). For the same compound, the herbicidal rating (Smartweed [6]; 2 WAT, 1.12 kg/h) was 3 (75-100), the herbicidal rating (Smartweed [6]; 2 WAT, 5.60 kg/h) was 3 (75-100) and the herbicidal rating (Smartweed [6]; 4 WAT, 11.2 kg/h) was 3 (75-100). The herbicidal rating (Downy Brome [7]; 2 WAT, 0.28 kg/h) was 2 (50-74), the herbicidal rating (Downy Brome [7]; 2 WAT, 1.12 kg/h) was 1 (25-49) and the herbicidal rating (Downy Brome [7]; 2 WAT, 5.60 kg/h) was 3 (75-100). The herbicidal rating (Downy Brome [7]; 4 WAT, 11.2 kg/h) was 3 (75-100), the herbicidal rating (Barnyardgrass [8]; 2 WAT, 0.28 kg/h) was 3 (75-100) and the herbicidal rating (Barnyardgrass [8]; 2 WAT, 1.12 kg/h) was 3 (75-100). The herbicidal rating (Barnyardgrass [8]; 2 WAT, 5.60 kg/h) was 3 (75-100), the herbicidal rating (Barnyardgrass [8]; 4 WAT, 11.2 kg/h) was 3 (75-100) and the herbicidal rating (Velvetleaf [9]; 2 WAT, 0.28 kg/h) was 0 (0-24). For the same compound, the herbicidal rating (Velvetleaf [9]; 2 WAT, 1.12 kg/h) was 0 (0-24), the herbicidal rating (Velvetleaf [9]; 2 WAT, 5.60 kg/h) was 2 (50-74) and the herbicidal rating (Velvetleaf [9]; 4 WAT, 11.2 kg/h) was 1 (25-49). For the same compound, the herbicidal rating (Morningglory [10]; 2 WAT, 0.28 kg/h) was 1 (25-49), the herbicidal rating (Morningglory [10]; 2 WAT, 1.12 kg/h) was 1 (25-49) and the herbicidal rating (Morningglory [10]; 2 WAT, 5.60 kg/h) was 3 (75-100). For the same compound, the herbicidal rating (Morningglory [10]; 4 WAT, 11.2 kg/h) was 3 (75-100), the herbicidal rating (Johnsongrass [11]) was 0 (0-24) and the herbicidal rating (Lambsquarters [12]) was 1 (25-49). For the same compound, the herbicidal rating (Cocklebur [13]) was 1 (25-49), the herbicidal rating (Yellow Nutsedge [14]) was 0 (0-24) and the herbicidal rating (Quackgrass [15]) was 1 (25-49). The herbicidal rating (Canada Thistle [16]) was 2 (50-74), the herbicidal rating (Smartweed [17]) was 2 (50-74) and the herbicidal rating (Downy Brome [18]) was 0 (0-24). The herbicidal rating (Barnyardgrass [19]) was 2 (50-74), the herbicidal rating (Velvetleaf [20]) was 1 (25-49) and the herbicidal rating (Morningglory [21]) was 2 (50-74). For the same compound, the herbicidal rating (Johnsongrass [22]) was 1 (25-49), the herbicidal rating (Wheat; 0.28 kg/h) was 0 (0-24) and the herbicidal rating (Wheat; 1.12 kg/h) was 1 (25-49). The herbicidal rating (Wheat; 5.60 kg/h) was 1 (25-49), the herbicidal rating (Sorghum; 0.28 kg/h) was 0 (0-24) and the herbicidal rating (Sorghum; 1.12 kg/h) was 1 (25-49). For the same compound, the herbicidal rating (Sorghum; 5.60 kg/h) was 3 (75-100), the herbicidal rating (Crabgrass; 0.28 kg/h) was 3 (75-100) and the herbicidal rating (Crabgrass; 1.12 kg/h) was 2 (50-74). The herbicidal rating (Crabgrass; 5.60 kg/h) was 3 (75-100), the herbicidal rating (Hemp Sesbania; 0.28 kg/h) was 1 (25-49) and the herbicidal rating (Hemp Sesbania; 1.12 kg/h) was 3 (75-100). For the same compound, the herbicidal rating (Hemp Sesbania; 5.60 kg/h) was 2 (50-74), the herbicidal rating (Rice; 0.28 kg/h) was 2 (50-74) and the herbicidal rating (Rice; 1.12 kg/h) was 3 (75-100). The herbicidal rating (Rice; 5.60 kg/h) was 3 (75-100), the herbicidal rating (Panicum Spp.; 0.28 kg/h) was 3 (75-100) and the herbicidal rating (Panicum Spp.; 1.12 kg/h) was 1 (25-49). The herbicidal rating (Panicum Spp.; 5.60 kg/h) was 2 (50-74), the herbicidal rating (Soybean; 0.28 kg/h) was 0 (0-24) and the herbicidal rating (Soybean; 1.12 kg/h) was 1 (25-49). For the same compound, the herbicidal rating (Soybean; 5.60 kg/h) was 3 (75-100), the herbicidal rating (Sugarbeet; 0.28 kg/h) was 1 (25-49) and the herbicidal rating (Sugarbeet; 1.12 kg/h) was 2 (50-74). For the same compound, the herbicidal rating (Sugarbeet; 5.60 kg/h) was 2 (50-74), the herbicidal rating (Wild Buckwheat; 0.28 kg/h) was 3 (75-100) and the herbicidal rating (Wild Buckwheat; 1.12 kg/h) was 2 (50-74). For the same compound, the herbicidal rating (Wild Buckwheat; 5.60 kg/h) was 3 (75-100).
